This note sets out measurements from patent publication US9006228B2 (Merck Sharp & Dohme Corp., priority 2011, dated 2015).

The assay deals with T1, human GPR119 (Homo sapiens, UniProt Q8TDV5).
T1 sequence (Q8TDV5 1-308 limits assumed): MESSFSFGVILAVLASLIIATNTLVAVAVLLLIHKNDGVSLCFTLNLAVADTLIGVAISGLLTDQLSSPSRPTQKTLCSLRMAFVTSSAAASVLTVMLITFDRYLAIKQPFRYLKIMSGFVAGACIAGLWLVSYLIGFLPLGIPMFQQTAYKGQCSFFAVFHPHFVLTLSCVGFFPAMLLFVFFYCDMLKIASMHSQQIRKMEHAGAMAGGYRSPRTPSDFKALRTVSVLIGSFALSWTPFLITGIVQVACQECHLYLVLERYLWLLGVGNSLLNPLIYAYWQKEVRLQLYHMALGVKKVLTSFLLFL
Description: Measurement of GPR119 signaling (cAMP assay; LANCE kit or HTRF) in HEK293 cells stably transfected with human GPR119. The format is cell-based. As to conditions: agonist-stimulated cAMP in HEK293 cells expressing human GPR119. The procedure, abridged: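 LANCE method: cAMP detected with Eu-chelate/biotin-cAMP tracer, 3 h, read at 665 nm, converted via cAMP standards; basal from DMSO, maximum from internal agonist, 4-parameter fit.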
On the technique in general: Changes in cAMP serve as a functional read-out for many G protein-coupled receptors.
In the case of `CCCc1cnc(N2CCC([C@H]3C[C@H]3COCc3ccc(S(=O)(=O)CCO)cc3F)CC2)nc1` [Example 84], it took 1.3 nM to reach a half-maximal effect (EC50).

In the case of `O=S(=O)(CCO)c1ccc(COC[C@@H]2C[C@@H]2C2CCN(c3ncc(-c4ccoc4)cn3)CC2)c(F)c1` [Example 85, 2-[(3-fluoro-4-{[((1R,2R)-2-{1-[5-(3-furyl)pyrimidin-2-yl]piperidin-4-yl}cyclopropyl)methoxy]methyl}phenyl)sulfonyl]ethanol], the EC50 – broadly, the concentration giving half of the maximal effect – worked out at 3.8 nM. In the case of `O=S(=O)(CCO)c1ccc(COC[C@@H]2C[C@@H]2C2CCN(c3ncc(Cl)cn3)CC2)nc1` [Example 86, 2-({6-[({(1R,2R)-2-[1-(5-chloropyrimidin-2-yl)piperidin-4-yl]cyclopropyl}methoxy)methyl]pyridin-3-yl}sulfonyl)ethanol] it was 22 nM; in that of `O=S(=O)(CCO)c1ccc(COC[C@@H]2C[C@@H]2C2CCN(c3ncc(Br)cn3)CC2)nc1` [Example 87, 2-({6-[({(1R,2R)-2-[1-(5-bromopyrimidin-2-yl)piperidin-4-yl]cyclopropyl}methoxy)methyl]pyridin-3-yl}sulfonyl)ethanol], 10.7 nM. In the case of `CCc1cnc(N2CCC([C@H]3C[C@H]3COCc3ccc(S(=O)(=O)CCO)cn3)CC2)nc1` [Example 88, 2-({6-[({(1R,2R)-2-[1-(5-ethylpyrimidin-2-yl)piperidin-4-yl]cyclopropyl}methoxy)methyl]pyridin-3-yl}sulfonyl)ethanol] it was 17 nM; in that of `CCCc1cnc(N2CCC([C@H]3C[C@H]3COCc3ccc(S(=O)(=O)CCO)cn3)CC2)nc1` [Example 89, 2-({6-[({(1R,2R)-2-[1-(5-propylpyrimidin-2-yl)piperidin-4-yl]cyclopropyl}methoxy)methyl]pyridin-3-yl}sulfonyl)ethanol], 10 nM; in that of `O=S(=O)(CCO)c1ccc(COC[C@@H]2C[C@@H]2C2CCN(c3ncc(C4CC4)cn3)CC2)nc1` [Example 90, 2-({6-[({(1R,2R)-2-[1-(5-cyclopropylpyrimidin-2-yl)piperidin-4-yl]cyclopropyl}methoxy)methyl]pyridin-3-yl}sulfonyl)ethanol], 23 nM. In the case of `CC(=O)CSc1ccc(COC[C@@H]2C[C@@H]2C2CCN(C(=O)OC(C)(C)C)CC2)cc1` [Example 91] it was 14.9 nM; in that of `CC(C)(O)CSc1ccc(COC[C@@H]2C[C@@H]2C2CCN(C(=O)OC(C)(C)C)CC2)cc1` [Example 92], 20.3 nM.

As for `CC(O)CS(=O)(=O)c1ccc(COC[C@@H]2C[C@@H]2C2CCN(C(=O)OC(C)(C)C)CC2)cc1` (stereo partly drawn) [Example 94], the midpoint of the response, the EC50, lay at 9.5 nM. Then `CC(O)CS(=O)(=O)c1ccc(COC[C@@H]2C[C@@H]2C2CCN(c3ncc(Cl)cn3)CC2)c(F)c1` (stereo partly drawn) [Example 95, 1-({4-[({(1R,2R)-2-[1-(5-chloropyrimidin-2-yl)piperidin-4-yl]cyclopropyll}methoxy)methyl]-3-fluorophenyl}sulfonyl)propan-2-ol], with 2.4 nM; and `CC(O)CS(=O)(=O)c1ccc(COC[C@@H]2C[C@@H]2C2CCN(c3ncc(F)cn3)CC2)c(F)c1` (stereo partly drawn) [Example 96, 1-({4-[({(1R,2R)-2-[1-(5-fluoropyrimidin-2-yl)piperidin-4-yl]cyclopropyl}methoxy)methyl]-3-fluorophenyl}sulfonyl)propan-2-ol], with 21.9 nM; and `CC(O)CS(=O)(=O)c1ccc(COC[C@@H]2C[C@@H]2C2CCN(c3ncc(Br)cn3)CC2)c(F)c1` (stereo partly drawn) [Example 97, 1-({4-[({(1R,2R)-2-[1-(5-bromopyrimidin-2-yl)piperidin-4-yl]cyclopropyl}methoxy)methyl]-3-fluorophenyl}sulfonyl)propan-2-ol], with 1.6 nM. In the case of `CC(O)CS(=O)(=O)c1ccc(COC[C@@H]2C[C@@H]2C2CCN(c3cnc(Cl)cn3)CC2)c(F)c1` (stereo partly drawn) [Example 98, 1-({4-[({(1R,2R)-2-[1-(5-chloropyrazin-2-yl)piperidin-4-yl]cyclopropyl}methoxy)methyl]-3-fluorophenyl}sulfonyl)propan-2-ol], the EC50 came to 7.3 nM.

`CCc1cnc(N2CCC([C@H]3C[C@H]3COCc3ccc(-c4cccnn4)cc3F)CC2)nc1` [Example 99, 3-{4-[({(1R,2R)-2-[1-(5-ethylpyrimidin-2-yl)piperidin-4-yl]cyclopropyl}methoxy)methyl]-3-fluorophenyl}pyridazine]: the EC50 was 0.1 nM. In the case of `CCc1cnc(N2CCC([C@H]3C[C@H]3COCc3ccc(-c4ccc(C)nn4)cc3F)CC2)nc1` [Example 100, 3-{4-[({(1R,2R)-2-[1-(5-ethylpyrimidin-2-yl)piperidin-4-yl]cyclopropyl}methoxy)methyl]-3-fluorophenyl}-6-methylpyridazine] it was 1 nM; in that of `CCc1cnc(N2CCC([C@H]3C[C@H]3COCc3ccc(-c4ccc(OC)nn4)cc3F)CC2)nc1` [Example 101, 3-{4-[({(1R,2R)-2-[1-(5-ethylpyrimidin-2-yl)piperidin-4-yl]cyclopropyl}methoxy)methyl]-3-fluorophenyl}-6-methoxypyridazine], 0.8 nM. `CCc1cnc(N2CCC([C@H]3C[C@H]3COCc3ccc(-c4ccnnc4)cc3F)CC2)nc1` [Example 102, 4-{4-[({(1R,2R)-2-[1-(5-ethylpyrimidin-2-yl)piperidin-4-yl]cyclopropyl}methoxy)methyl]-3-fluorophenyl}pyridazine] gave an EC50 of 0.6 nM.

On to `CCc1cnc(N2CCC([C@H]3C[C@H]3COCc3ccc(-c4cnc(N)nc4)cc3F)CC2)nc1` [Example 103, 5-{4-[({(1R,2R)-2-[1-(5-ethylpyrimidin-2-yl)piperidin-4-yl]cyclopropyl}methoxy)methyl]-3-fluorophenyl}pyrimidin-2-amine], for which the EC50 came to 2.5 nM. In the case of `CCc1cnc(N2CCC([C@H]3C[C@H]3COCc3ccc(-c4cnc(OC)nc4)cc3F)CC2)nc1` [Example 104, 5-{4-[({(1R,2R)-2-[1-(5-ethylpyrimidin-2-yl)piperidin-4-yl]cyclopropyl}methoxy)methyl]-3-fluorophenyl}-2-methoxypyrimidine] it was 8.8 nM; in that of `CCc1cnc(N2CCC([C@H]3C[C@H]3COCc3ccc(-c4ccnc(N)n4)cc3F)CC2)nc1` [Example 105, 4-{4-[({(1R,2R)-2-[1-(5-ethylpyrimidin-2-yl)piperidin-4-yl]cyclopropyl}methoxy)methyl]-3-fluorophenyl}pyrimidin-2-amine], 10.8 nM; in that of `CCc1cnc(N2CCC([C@H]3C[C@H]3COCc3ccc(-c4ccnc(OC)n4)cc3F)CC2)nc1` [Example 106, 4-{4-[({(1R,2R)-2-[1-(5-ethylpyrimidin-2-yl)piperidin-4-yl]cyclopropyl}methoxy)methyl]-3-fluorophenyl}-2-methoxypyrimidine], 2.9 nM. In the case of `CCc1cnc(N2CCC([C@H]3C[C@H]3COCc3ccc(-c4nccnc4N)cc3F)CC2)nc1` [Example 107, 2-{4-[({(1R,2R)-2-[1-(5-ethylpyrimidin-2-yl)piperidin-4-yl]cyclopropyl}methoxy)methyl]-3-fluorophenyl}pyrazin-2-amine] it was 2 nM. In the case of `CCc1cnc(N2CCC([C@H]3C[C@H]3COCc3ccc(-c4cncnc4)cc3F)CC2)nc1` [Example 108, 5-{4-[({(1R,2R)-2-[1-(5-ethylpyrimidin-2-yl)piperidin-4-yl]cyclopropyl}methoxy)methyl]-3-fluorophenyl}pyrimidine] it was 1.1 nM; in that of `CCc1cnc(N2CCC([C@H]3C[C@H]3COCc3ccc(-c4cnccn4)cc3F)CC2)nc1` [Example 109, 2-{4-[({(1R,2R)-2-[1-(5-ethylpyrimidin-2-yl)piperidin-4-yl]cyclopropyl}methoxy)methyl]-3-fluorophenyl}pyrazine], 2.3 nM.

`CCc1cnc(N2CCC([C@H]3C[C@H]3COCc3ccc(-c4ccncn4)cc3F)CC2)nc1` [Example 110, 4-{4-[({(1R,2R)-2-[1-(5-ethylpyrimidin-2-yl)piperidin-4-yl]cyclopropyl}methoxy)methyl]-3-fluorophenyl}pyrimidine] displayed an EC50 of 1.5 nM. `CCc1cnc(N2CCC([C@H]3C[C@H]3COCc3ccc(-c4cnc(C)s4)cc3F)CC2)nc1` [Example 111, 5-ethyl-2-{4-[(1R,2R)-2-({[2-fluoro-4-(2-methyl-1,3-thiazol-5-yl)benzyl]oxy}methyl)cyclopropyl]piperidin-1-yl}pyrimidine]: the response was half-maximal at 4 nM (EC50).

`CCc1cnc(N2CCC([C@H]3C[C@H]3COCc3ccc(-c4ccncn4)c(F)c3)CC2)nc1` [Example 112, 4-{4-[({(1R,2R)-2-[1-(5-ethylpyrimidin-2-yl)piperidin-4-yl]cyclopropyl}methoxy)methyl]-2-fluorophenyl}pyrimidine]: it took 3 nM to reach a half-maximal effect (EC50). `CCc1cnc(N2CCC([C@H]3C[C@H]3COCc3ccc(-c4cncnc4)c(F)c3)CC2)nc1` [Example 113, 5-{4-[({(1R,2R)-2-[1-(5-ethylpyrimidin-2-yl)piperidin-4-yl]cyclopropyl}methoxy)methyl]-2-fluorophenyl}pyrimidine] gave a concentration for a half-maximal effect (EC50) of 2 nM.

`CCc1cnc(N2CCC([C@H]3C[C@H]3COCc3ccc(-c4cccnn4)c(F)c3)CC2)nc1` [Example 114, 3-{4-[({(1R,2R)-2-[1-(5-ethylpyrimidin-2-yl)piperidin-4-yl]cyclopropyl}methoxy)methyl]-2-fluorophenyl}pyridazine] returned an EC50 of 3 nM.
